Experimental data published in EP0102509A1, “Oxamid-acid derivatives, process for their preparation and therapeutical agents containing them” (BASF Aktiengesellschaft, priority 1982, dated 1984).

Tested on: passiven cutanen Anaphylaxie (PCA)
Experiment: Passive cutaneous anaphylaxis (PCA) in rats, oral administration
Type: in vivo, Ratte
Conditions: for ED50: read-out: Hemmung der PCA ED 50 %; for Hemmung der PCA R.W.: relative potency after oral administration, comparison compound A = 1.00
Procedure: Die antiallergische Wirkung wurde an Ratten getestet. Zur Prüfung wurde das Modell der passiven cutanen Anaphylaxie (PCA) verwendet: • Narkotisierte männliche Ratten (100 - 140 g) werden durch intradermale Injektion (rasierte Rückenhaut) von 0,1 ml eines Ovalbumin-Antiserums sensibilisiert. Nach einer Sensibilisierüngsdauer von ca. 48 h erfolgt die Behandlung (orale Applikation) mit unterschiedlichen Dosierungen (10 Tiere/Dosis) der Prüfsubstanzen. 15 bzw. 20 min nach der Behandlung wird eine Antigen/Evansblau-Mischung (10 mg/kg Ovalbumin in 2%iger Evansblau-Lösung) den Versuchstieren intravenös injiziert. 30 min später werden die Tiere getötet, die Rückenhaut abgezogen und auf der inneren Oberfläche der Durchmesser der kreisförmigen Blaufärbung gemessen. Die Größe der Farbflecke unbehandelter Kontrolltiere ist standardisierbar. Antiallergisch wirksame Substanzen verkleinern dosisabhängig den Durchmesser der Farbflecke. Als ED-50 % wird die Dosis angegeben, die im Vergleich zu medikamentös unbehandelten Kontrolltieren den Durchmesser der Farbflecke um 50 % herabsetzt.

[1] = oral administration, rat, dose that reduces the diameter of the dye spots by 50 % vs untreated controls

Molecule	ED50 [1]	Hemmung der PCA R.W.	Hemmung der PCA R.W. (listed as Bsp. 2)	Hemmung der PCA ED 50 % [1]	Hemmung der PCA R.W. (listed as Bsp. 3)	Antiallergische Wirkung (bis 100 mg/kg p.o., rat PCA)
CCOCCOC(=O)C(=O)Nc1cccc(NC(=O)C(=O)OCCOCC)c1 [Beispiel 2, N,N'-(1,3-Phenylen)-dioxamidsäure-2-ethoxyethylester]	2.77 mg/kg	3.10	3,10			
N,N'-(1,3-Phenylen)-dioxamidsäure-2-butoxyethylester [Beispiel 3]		ca. 1.85		ca. 4.64 mg/kg	1,85	
O=C(O)c1cc(=O)c2c(OCC(O)COc3cccc4oc(C(=O)O)cc(=O)c34)cccc2o1 [Cromolyne, reference compound]	> 100 mg/kg					unwirksam
